The source of these data is US10214512B2, “Factor XIA inhibitors” (MERCK SHARP & DOHME CORP., priority 2015, dated 2019).

In this assay the target is purified Human plasma Kallikrein (Homo sapiens (Human), UniProt P03952). Briefly: Kallikrein Assay. The class given is biochemical. Particulars: purified Human plasma Kallikrein 0.5 nM; substrate Acetyl-K-P-R-AFC; 50 mM HEPES pH 7.4; Ki from IC50 by Cheng Prusoff. As for the experimental part: The effectiveness of a compound of the present invention as an inhibitor of Kallikrein can be determined using a relevant purified serine protease, and an appropriate synthetic substrate. The rate of hydrolysis of the chromogenic or fluorogenic substrate by the relevant serine protease was measured both in the absence and presence of compounds of the present invention. Assays were conducted at rt or at 37° C. […] A decrease in the rate of fluorescence change in the presence of inhibitor is indicative of enzyme inhibition. Such methods are known to one skilled in the art. The results of this assay are expressed as the inhibitory constant, Ki.
purified Human plasma Kallikrein, sequence (P03952 391-638): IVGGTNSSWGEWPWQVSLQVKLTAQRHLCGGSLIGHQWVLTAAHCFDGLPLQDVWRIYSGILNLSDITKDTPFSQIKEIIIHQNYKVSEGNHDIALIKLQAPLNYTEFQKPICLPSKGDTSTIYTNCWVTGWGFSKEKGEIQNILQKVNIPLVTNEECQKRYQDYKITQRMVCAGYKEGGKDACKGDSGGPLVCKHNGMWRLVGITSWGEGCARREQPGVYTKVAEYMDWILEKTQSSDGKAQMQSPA
purified Human plasma Kallikrein, sequence (P03952 20-390 partner): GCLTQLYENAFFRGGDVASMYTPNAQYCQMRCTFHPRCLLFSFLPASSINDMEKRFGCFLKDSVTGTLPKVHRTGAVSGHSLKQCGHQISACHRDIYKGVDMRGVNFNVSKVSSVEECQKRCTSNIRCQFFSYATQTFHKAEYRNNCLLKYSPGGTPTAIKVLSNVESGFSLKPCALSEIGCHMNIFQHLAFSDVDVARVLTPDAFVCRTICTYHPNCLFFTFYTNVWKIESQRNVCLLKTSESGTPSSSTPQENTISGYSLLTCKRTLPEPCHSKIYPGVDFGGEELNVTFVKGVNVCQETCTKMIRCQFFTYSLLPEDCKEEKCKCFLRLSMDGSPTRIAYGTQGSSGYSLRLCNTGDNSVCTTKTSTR
Kallikrein determinations were made in 50 mM HEPES buffer at pH 7.4 containing 150 mM NaCl, 5 mM CaCl2, and 0.1% PEG 8000 (polyethylene glycol; Fisher Scientific). Determinations were made using purified Human plasma Kallikrein at a final concentration of 0.5 nM (Enzyme Research Laboratories) and the synthetic substrate, Acetyl-K-P-R-AFC (Sigma # C6608) at a concentration of […].
Times required to achieve equilibration between enzyme and inhibitor were determined in control experiments. […] IC50 was determined by inflection point from a four parameter logistic curve fit. Ki was calculated using the Cheng Prusoff equation, Ki=IC50/(1+([S]/Km)).
Broadly, the Ki is the equilibrium dissociation constant of an inhibitor or competing ligand from its target. Read a low Ki as higher affinity. On to `COC(=O)Nc1ccc2c(c1)NC(=O)CCCC[C@H](c1ccc(-c3c(F)cccc3-n3cc(C(F)(F)F)cn3)c[n+]1[O-])c1nc-2c(C)[nH]1` (single isomer, unassigned) [Example 137], for which affinity was put at a Ki of 418 nM.
Then `COC(=O)Nc1ccc2c(c1)NC(=O)CC[C@@H](C)C[C@H](c1ccc(-c3c(F)cccc3OC(F)F)c[n+]1[O-])c1nc-2c(C)[nH]1` (single isomer, unassigned) [Example 152-a], with 2.76 nM.
`COC(=O)Nc1ccc2c(c1)NC(=O)CCCC[C@H](c1ccc(-c3c(OC(F)F)ccc(F)c3F)c[n+]1[O-])c1nc-2c(C)[nH]1` (single isomer, unassigned) [Example 130] gave a Ki of 0.66 nM.
To `COC(=O)Nc1ccc2c(c1)NC(=O)[C@@H](C)CCC[C@H](c1ccc(-c3cc(F)ccc3OC(F)(F)F)c[n+]1[O-])c1nc-2c(C)[nH]1` (single isomer, unassigned) [Example 149-c] belongs 7.71 nM; to `COC(=O)Nc1ccc2c(c1)NC(=O)[C@@H](C)CCC[C@@H](c1ccc(-c3cc(F)ccc3OC(F)(F)F)c[n+]1[O-])c1nc-2c(C)[nH]1` (single isomer, unassigned) [Example 149-b], 53.7 nM.
With `COC(=O)Nc1ccc2c(c1)NC(=O)C(C)CCCC(c1ccc(-c3c(F)ccc(Cl)c3F)cn1)c1cc-2ccn1` (single isomer, unassigned) [Example 95-a, Methyl (9-(5-(3-chloro-2,6-difluorophenyl)pyridin-2-yl)-5-methyl-4-oxo-3-aza-1(4,2)-pyridina-2(1,2)-benzenacyclononaphane-2^4-yl)carbamate], the inhibition constant Ki came out at 11.7 nM.
To `COC(=O)Nc1ccc2c(c1)NC(=O)[C@@H](C)CCC[C@@H](c1ccc(-c3c(OC(F)F)ccc(F)c3F)c[n+]1[O-])c1nc-2c(C)[nH]1` (single isomer, unassigned) [Example 150-b] belongs 31.2 nM; to `COC(=O)Nc1ccc2c(c1)NC(=O)CCCC[C@H](c1ccc(-c3cc(Cl)ccc3-c3cnco3)c[n+]1[O-])c1cccc-2c1` (single isomer, unassigned) [Example 35], 0.7 nM.
Compound `COC(=O)Nc1ccc2c(c1)NC(=O)C(C)CCCC(c1cc(OC)c(-c3c(F)ccc(Cl)c3F)c[n+]1[O-])c1cccc-2c1` (single isomer, unassigned) [Example 88-d, 5-(3-Chloro-2,6-difluorophenyl)-4-methoxy-2-(2^4-((methoxycarbonyl)amino)-5-methyl-4-oxo-3-aza-1(1,3),2(1,2) -dibenzenacyclononaphane-9-yl)pyridine 1-oxide] displayed a Ki of 5.21 nM.
As for `COC(=O)Nc1ccc2c(c1)NC(=O)[C@H](C)CCC[C@H](c1ccc(-c3c(OC(F)F)ccc(F)c3F)c[n+]1[O-])c1nc-2c(C)[nH]1` (single isomer, unassigned) [Example 150-a], the affinity corresponds to a Ki of 0.51 nM.
Then `COC(=O)Nc1ccc2c(c1)NC(=O)CCCC[C@H](c1ccc(-c3c(F)cccc3-n3cc(C(F)(F)F)cn3)c[n+]1[O-])c1nc-2c[nH]1` (single isomer, unassigned) [Example 115], with 331 nM; and `COC(=O)Nc1ccc2c(c1)NC(=O)CC[C@@H](C)C[C@@H](c1ccc(-c3c(F)ccc(Cl)c3F)c[n+]1[O-])c1nc-2c(C)[nH]1` (single isomer, unassigned) [Example 151-c], with 29 nM; and `COC(=O)Nc1ccc2c(c1)NC(=O)CCCC[C@H](c1ccc(-c3c(F)ccc(Cl)c3F)c[n+]1[O-])c1ccc(F)c-2c1` (single isomer, unassigned) [Example 68], with 2.09 nM.
Then `C[C@H]1CCC[C@@H](c2ccc(-c3cc(Cl)ccc3-n3cc(C(F)(F)F)cn3)c[n+]2[O-])c2cccc(c2)-c2c(cnn2C(F)F)NC1=O` (single isomer, unassigned) [Example 168-d], with 161 nM; and `COC(=O)Nc1ccc2c(c1)NC(=O)[C@H](C)CCC[C@H](c1ccc(-c3c(F)cccc3F)c[n+]1[O-])c1nc-2c(C2CC2)[nH]1` (single isomer, unassigned) [Example 145-a], with 0.3 nM.
Then `COC(=O)Nc1ccc2c(c1)NC(=O)CC[C@H](C)C[C@H](c1ccc(-c3c(F)ccc(Cl)c3F)c[n+]1[O-])c1nc-2c(C)[nH]1` (single isomer, unassigned) [Example 151-b], with 10.8 nM.
Compound `COC(=O)Nc1ccc2c(c1)NC(=O)CCCCC(c1ccc(-c3c(F)ccc(Cl)c3F)c[n+]1[O-])c1ccnc-2c1` (single isomer, unassigned) [Example 93-a, 5-(3-Chloro-2,6-difluorophenyl)-2-(2^4-((methoxycarbonyl)amino)-4-oxo-3-aza-1 (2,4)-pyridina-2(1,2)-benzenacyclononaphane-9-yl)pyridine 1-oxide] had a Ki of 1.92 nM.
For the compound `COC(=O)Nc1ccc2c(c1)NC(=O)[C@@H](C)CCC[C@H](c1ccc(-c3cc(Cl)ccc3OC(F)(F)F)c[n+]1[O-])c1cccc-2c1` (single isomer, unassigned) [Example 77-b], the Ki came out at 17.3 nM.
As for `COC(=O)Nc1ccc2c(c1)NC(=O)[C@@H](C)CCC[C@H](c1ccc(-c3c(OC(F)F)ccc(F)c3F)c[n+]1[O-])c1nc-2c(C)[nH]1` (single isomer, unassigned) [Example 150-c], the inhibition constant (Ki) was 1.5 nM.
The compound `COC(=O)Nc1ccc2c(c1)NC(=O)CCCC[C@H](c1ccc(-c3c(F)cccc3OC(F)F)c[n+]1[O-])c1nc-2c(C)[nH]1` (single isomer, unassigned) [Example 126] returned a Ki of 2.03 nM.
To `COC(=O)Nc1ccc2c(c1)NC(=O)CC[C@@H](C)C[C@H](c1ccc(-c3c(F)ccc(Cl)c3F)c[n+]1[O-])c1nc-2c(C)[nH]1` (single isomer, unassigned) [Example 151-a] belongs 0.16 nM; to `CCc1[nH]c2nc1-c1ccc(NC(=O)OC)cc1NC(=O)[C@@H](C)CCC[C@@H]2c1ccc(-c2c(F)cccc2OC(F)F)c[n+]1[O-]` (single isomer, unassigned) [Example 146-c], 3.46 nM; to `COC(=O)Nc1ccc2c(c1)NC(=O)C(C)CCCC(c1cc(OC)c(-c3c(F)ccc(Cl)c3F)c[n+]1[O-])c1cccc-2c1` (single isomer, unassigned) [Example 88-b, 5-(3-Chloro-2,6-difluorophenyl)-4-methoxy-2-(2^4-((methoxycarbonyl)amino)-5-methyl-4-oxo-3-aza-1(1,3),2(1,2) -dibenzenacyclononaphane-9-yl)pyridine 1-oxide], 2.67 nM.
As for `COC(=O)Nc1ccc2c(c1)NC(=O)CCCC[C@H](c1ccc(-c3c(F)cccc3OC(F)F)c[n+]1[O-])c1cccc-2c1` (single isomer, unassigned) [Example 34], the inhibition constant (Ki) came to 5.01 nM.
Then `COC(=O)Nc1ccc2c(c1)NC(=O)[C@@H](C)CCC[C@H](c1ccc(-c3c(F)cccc3F)c[n+]1[O-])c1nc-2c(C2CC2)[nH]1` (single isomer, unassigned) [Example 145-c], with 1.1 nM.
In turn, `COC(=O)Nc1ccc2c(c1)NC(=O)CCCCC(c1ccc(-c3cc(Cl)ccc3-n3cc(C(=O)O)nn3)cn1)c1cccc-2c1` (single isomer, unassigned) [Example 92-a, 1-(4-chloro-2-(6-(2^4-((methoxycarbonyl)amino)-4-oxo-3-aza-1(1,3),2(1,2) -dinenzenacyclononaphane-9-yl)pyridin-3-yl)phenyl)-1H-1,2,3-triazole-4-carboxylic acid] returned a Ki of 26 nM.
